Here are results for one compound from paper PMC7710018, “Restoration of motor learning in a mouse model of Rett syndrome following long-term treatment with a novel small-molecule activator of TrkB” (Disease Models & Mechanisms, 2020).

The test system of assay [1] is heterozygous (Het) female Mecp2 mutant mice. Put plainly: Rotarod. The assay is classed as in vivo, mouse. The conditions noted are these: 5 mg/kg q72 h. How it is done:
Small-molecule compounds were diluted in saline and delivered by i.p. injection. To define the acute effects of single drug treatments, behavioral testing was initiated 1 h after dosing. Durable effects of single drug treatments were evaluated 24 h after dosing. […]
A Rotarod apparatus (Columbus Instruments) was used test to assess sensorimotor coordination. Animals were placed on a rotating rod at a constant speed of 4 rpm for 1 min of acclimation. […] Latency of the animal to fall was recorded. The test was repeated three times, with each trial separated by 15 min, to assess potential learning components of any observed phenotypes.

The test system is the same in assay [2]. Kind of assay: Forelimb grip strength. The assay is classed as in vivo, mouse. The note with it: chronic intermittent 5 mg/kg q72 h. How it is done: This improvement is consistent with previous reports of motor learning in response to repeated exposure to Rotarod testing ([Buitrago et al., 2004]). […] To investigate this possibility, we evaluated Rotarod performance in additional cohorts of animals that received chronic intermittent dosing with PTX-BD4-3 and only one exposure to Rotarod testing, at the end of the 8-week treatment period (Fig. 7A).
Fig. 7. […] (A) Repeated dosing with PTX-BD4-3 (5 mg/kg, q72 h) for 8 weeks had no impact on latency to fall in animals that were tested only at the end of the 8-week treatment period. Rotarod performance was measured over three successive trials, 24 h after the last dose. n=15-16 subjects derived from two independent experiments. (B) Het mice show no deficit in forelimb grip strength compared to Wt controls, and no increase in grip strength in response to treatment with PTX-BD4-3. n=9-20 subjects derived from two independent experiments. *P<0.05, **P<0.001 compared to saline-treated Wt mice. One-way ANOVA with LSD post hoc analysis. Black, saline-treated Wt mice; gray, saline-treated Het mice; red, PTX-BD4-3-treated Het mice.

The next assay has as its system AKT. Put plainly: In vivo TrkB signaling, western blot of hippocampus and mPFC. Further details: species or system mouse. The note with it: male Mecp2 null mice, 50 mg/kg i.p. once daily 5 days, 1 h after last injection, vs saline. How it is done: (§1) Animals were given either single or repeated doses of PTX-BD4-3 (50 mg/kg, i.p.) or vehicle (saline) and then sacrificed for tissue harvesting and western blot analysis of phosphorylated and total TrkB (pTrkB/TrkB), AKT (also known as AKT1) (pAKT/AKT) and ERK (also known as MAPK) (pERK/ERK), respectively, in the hippocampus and medial prefrontal cortex (mPFC).
(§2) Fig. 4. PTX-BD4-3 activates TrkB signaling in vivo following systemic administration in null male Mecp2 mutant mice. Null mice were treated for 5 days with once daily injections of PTX-BD4-3 (open bars, 50 mg/kg, i.p.) or saline (black bars, vehicle) and then sacrificed 1 h after the last injection. Brain lysates from the hippocampus and medial prefrontal cortex (mPFC) were processed for western blot analysis of phosphorylated and total TrkB (pTrkB^Y817/TrkB), AKT (pAKT/AKT) and ERK (pERK/ERK) as described in the Materials and Methods. For detection of total TrkB, AKT and ERK, blots were concomitantly probed with the respective total protein antibodies and each of the three bands quantitated as indicated by arrows. For ERK, the pair of bands (consistent with ERK1 and ERK2 isoforms) indicated by the brackets was quantitated together as one value. For each tissue, the same blot and images for total protein (TrkB, AKT, ERK, actin) are shown here in triplicate as an adjacent reference to phospho-protein detection. For detection of phospho-proteins in the hippocampus, blots were probed separately with the three indicated phospho antibodies. For detection in the mPFC, blots were probed separately for pTrkB and probed for pAKT and pERK concomitantly; and for the latter two, the same blot and image are shown here in duplicate as an adjacent reference to phospho-protein detection. ^§P<0.01 (compared to vehicle); *P<0.05 (compared to vehicle); Student's t-test.
(§3) Frozen tissues were lysed in RIPA lysis buffer (150 mM NaCl, 50 mM Tris, pH 7.4, 1 mM EDTA, 1% Triton X-100 or 1% NP40, 10% glycerol, 1 mM phenylmethylsulfonyl fluoride, Na3VO4 and protease inhibitor cocktail). Lysates were mixed with 4× NuPAGE LDS loading buffer and dithiothreitol, and 50 μg protein was loaded per lane on a NuPAGE 4-12% Bis-Tris gradient gel and transferred to polyvinylidene difluoride membrane (run at 100 V for 1.5 h). […]

The subject of another assay is TrkB. Described as above. The note with it: male Mecp2 null mice, vs saline. The arrangement: species or system mouse. How it is done:
as §1, §2, §3

The subject of the next assay is ERK. The assay is described as above. Further details: species or system mouse. The conditions noted are these: male Mecp2 null mice, 50 mg/kg i.p. once daily 5 days, 1 h after last injection, vs saline. On the procedure: as §1, §2, §3

SMILES strings stand for the structures.

For `COCCN(C)C(=O)c1cc(C(=O)N(C)CCOC)cc(C(=O)N(C)CCOC)c1` [PTX-BD4-3, benzene-1,3,5-tricarboxylic acid tris-[(2-methoxy-ethyl)-methyl-amide]], the “Rotarod performance (latency to fall)” value is reported as “as impaired as their saline-treated Het littermates” in assay [1] (2 weeks, repeated testing, 24 h after last dose); “comparable to that of saline-treated Wt controls” in assay [1] (8 weeks, repeated testing at 2, 4, 8 weeks, 24 h after last dose); “no improvement” in assay [1] (8 weeks, tested only at the end of treatment, vs saline-treated Het). The forelimb grip strength result in assay [2] was “no gain in grip strength”. Moreover, in the assay with AKT, the pAKT/AKT entry is “significantly increased”. Also, the pTrkB/TrkB entry with TrkB (50 mg/kg i.p. once daily 5 days, 1 h after last injection, hippocampus and mPFC) is on record as “significantly increased”. In the assay with TrkB (50 mg/kg i.p.), the “expression of total TrkB, AKT or ERK” value is listed as “No differences”. In addition, the pERK/ERK entry with ERK is recorded as “no significant effect”.
